Numbers after ± are expanded uncertainties.
Tests used:
[1] = Crystal; DTA
[2] = Molar enthalpy of transition or fusion; conditions: Crystal; DSC

| Structure (SMILES) | Normal melting temperature [1] [°C] | Molar enthalpy of transition or fusion [2] [kcal/mol] |
| --- | --- | --- |
| Clc1ccccc1Cl [1,2-dichlorobenzene] | -17.30 ± 0.5 | 3.13 ± 0.0789 |
| Clc1cccc(Cl)c1 [1,3-dichlorobenzene] | -24.90 ± 0.5 | 2.99 ± 0.0765 |
| Clc1ccc(Cl)cc1 [1,4-dichlorobenzene] | 53.00 ± 0.5 | 4.32 ± 0.103 |
| c1ccc2c(c1)ccc1ccccc12 [phenanthrene] | 98.90 ± 0.5 | 3.99 ± 0.0956 |

Source: the NIST ThermoML archive (doi:10.1016/j.tca.2008.09.010)
